Laboratory results reported in patent US6737383B1, “Herbicidal oxadiazolidines” (priority 1999, dated 2004).

Columns and labels:
wheat = assay: Test B pre/postemergence wheat; assay type: in vivo, Triticum aestivum
Summary of the method: (§1)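 Response is a visual 0-to-10 score relative to untreated plants, where 0 means no effect and 10 means complete control, taken twelve to sixteen days after application. Treatments went onto soil at planting and onto foliage of 1- to 4-leaf plants, using a surfactant-containing non-phytotoxic solvent.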

pigweed = assay: Test B pre/postemergence pigweed; assay type: in vivo, Amaranthus retroflexus
Summary of the method: as §1

wild oat = assay: Test B pre/postemergence wild oat; assay type: in vivo, Avena fatua
Summary of the method: as §1

rice = assay: Test B flood test rice; assay type: in vivo, Oryza sativa
Summary of the method: (§2)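 Flood test on plants grown to the 2-leaf stage; treated plants kept in greenhouse twelve to sixteen days, then visually rated against controls on a 0 (no effect) to 10 (complete control) scale.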

bedstraw = assay: Test B pre/postemergence bedstraw; assay type: in vivo, Galium aparine; conditions: Preemergence
Summary of the method: as §1

sugar beet = assay: Test B pre/postemergence sugar beet; assay type: in vivo, Beta vulgaris
Summary of the method: as §1

duck salad = assay: Test B flood test duck salad; assay type: in vivo, Heteranthera limosa
Summary of the method: as §2

purple nutsedge = assay: Test B pre/postemergence purple nutsedge; assay type: in vivo, Cyperus rotundus
Summary of the method: as §1

rape = assay: Test B pre/postemergence rape; assay type: in vivo, Brassica napus
Summary of the method: as §1

surinam grass = assay: Test B pre/postemergence surinam grass; assay type: in vivo, Brachiaria decumbens
Summary of the method: as §1

corn = assay: Test B pre/postemergence corn; assay type: in vivo, Zea mays
Summary of the method: as §1

smallflower flatsedge = assay: Test B flood test smallflower flatsedge; assay type: in vivo, Cyperus difformis
Summary of the method: as §2

giant foxtail = assay: Test B pre/postemergence giant foxtail; assay type: in vivo, Setaria faberii
Summary of the method: as §1

velvetleaf = assay: Test B pre/postemergence velvetleaf; assay type: in vivo, Abutilon theophrasti
Summary of the method: as §1

soybean = assay: Test B pre/postemergence soybean; assay type: in vivo, Glycine max
Summary of the method: as §1

cocklebur = assay: Test B pre/postemergence cocklebur; assay type: in vivo, Xanthium strumarium
Summary of the method: as §1

[1] = Postemergence, Rate 500 g/ha, scale of 0 to 10 where 0 is no effect and 10 is complete control
[2] = Preemergence, Rate 62 g/ha, scale 0 to 10 (0 no effect, 10 complete control)
[3] = Preemergence, Rate 125 g/ha, scale of 0 to 10 where 0 is no effect and 10 is complete control
[4] = Preemergence, Rate 250 g/ha, scale 0 to 10, 0 is no effect, 10 is complete control
[5] = Preemergence, Rate 500 g/ha, scale 0 to 10, 0 is no effect, 10 is complete control
[6] = Postemergence, Rate 250 g/ha, scale 0 to 10, 0 is no effect, 10 is complete control
[7] = Rate 62 g/ha, flood test species, Pre-emergence, visual evaluation after twelve to sixteen days
[8] = Rate 125 g/ha, under heading Pre-emergence, flood test species, visual evaluation after twelve to sixteen days
[9] = Rate 250 g/ha, Pre-emergence (flood test species), scale 0 to 10, 0 is no effect, 10 is complete control
[10] = Rate 500 g/ha, Pre-emergence, flood test species, scale 0 to 10 (0 no effect, 10 complete control)
[11] = Postemergence, Rate 125 g/ha, scale 0 to 10, 0 is no effect, 10 is complete control
[12] = Rate 62 g/ha, Postemergence, scale of 0 to 10 where 0 is no effect and 10 is complete control

In the case of `C=CC[Si](C)(C)Cn1c(=O)on(C(=O)N(c2ccc(Cl)cc2)C(C)C)c1=O` [Compound 414], the “Wheat plant response rating” value (wheat; [1]) is reported as 0, the “Plant response rating, Wheat” value (wheat; [2]) is reported as 0 and the “Plant response rating, Wheat” value (wheat; [3]) is reported as 0. The “Wheat plant response rating” value (wheat; [4]) was 0, the “Wheat plant response rating” value (wheat; [5]) was 0 and the “Plant response rating, Redroot pigweed” value (pigweed; [6]) was 0. For the same compound, the “Redroot pigweed plant response rating” value (pigweed; [1]) was 0, the “Plant response rating, Redroot pigweed” value (pigweed; [2]) was 0 and the “Plant response rating, Redroot pigweed” value (pigweed; [3]) was 0. For the same compound, the “Redroot pigweed plant response rating” value (pigweed; [4]) was 0, the “Redroot pigweed plant response rating” value (pigweed; [5]) was 0 and the “Wild oats plant response rating” value (wild oat; [1]) was 2. The “Plant response rating, Wild oats” value (wild oat; [2]) was 0, the “Plant response rating, Wild oats” value (wild oat; [3]) was 0 and the “Wild oats plant response rating” value (wild oat; [4]) was 2. For the same compound, the “Wild oats plant response rating” value (wild oat; [5]) was 7, the “Plant response rating, Rice (0 to 10 scale, 0 is no effect, 10 is complete control)” value (rice; [7]) was 0 and the “Rice plant response rating (0 to 10 scale, 0 is no effect, 10 is complete control)” value (rice; [8]) was 0. The “Rice plant response rating” value (rice; [9]) was 0, the “Rice plant response rating” value (rice; [10]) was 0 and the “Plant response rating, Bedstraw” value (bedstraw; Rate 62 g/ha, scale 0 to 10 (0 no effect, 10 complete control)) was 0. The “Plant response rating, Bedstraw” value (bedstraw; Rate 125 g/ha, scale of 0 to 10 where 0 is no effect and 10 is complete control) was 0, the “Bedstraw plant response rating” value (bedstraw; Rate 250 g/ha, scale of 0 to 10 where 0 is no effect and 10 is complete control) was 0 and the “Bedstraw plant response rating” value (bedstraw; Rate 500 g/ha, scale 0 to 10, 0 is no effect, 10 is complete control) was 0. For the same compound, the “Plant response rating, Sugarbeets” value (sugar beet; [6]) was 0, the “Sugarbeets plant response rating” value (sugar beet; [1]) was 0 and the “Plant response rating, Sugarbeets” value (sugar beet; [2]) was 0. For the same compound, the “Plant response rating, Sugarbeets” value (sugar beet; [3]) was 0, the “Sugarbeets plant response rating” value (sugar beet; [4]) was 0 and the “Sugarbeets plant response rating” value (sugar beet; [5]) was 0. For the same compound, the “Plant response rating, Ducksalad (0 to 10 scale, 0 is no effect, 10 is complete control)” value (duck salad; [7]) was 0, the “Ducksalad plant response rating (0 to 10 scale, 0 is no effect, 10 is complete control)” value (duck salad; [8]) was 0 and the “Ducksalad plant response rating” value (duck salad; [9]) was 0. For the same compound, the “Ducksalad plant response rating” value (duck salad; [10]) was 0, the “Plant response rating, Nutsedge” value (purple nutsedge; [6]) was 0 and the “Nutsedge plant response rating” value (purple nutsedge; [1]) was 0. The “Plant response rating, Nutsedge” value (purple nutsedge; [2]) was 0, the “Plant response rating, Nutsedge” value (purple nutsedge; [3]) was 0 and the “Nutsedge plant response rating” value (purple nutsedge; [4]) was 0. The “Plant response rating, Rape” value (rape; [6]) was 0, the “Rape plant response rating” value (rape; [1]) was 0 and the “Plant response rating, Rape” value (rape; [2]) was 0. For the same compound, the “Plant response rating, Rape” value (rape; [3]) was 0, the “Rape plant response rating” value (rape; [4]) was 0 and the “Rape plant response rating” value (rape; [5]) was 0. For the same compound, the “Plant response rating, B. signalgrass” value (surinam grass; [11]) was 0, the “Plant response rating, B. signalgrass” value (surinam grass; [6]) was 1 and the “B. signalgrass plant response rating” value (surinam grass; [1]) was 6. For the same compound, the “Plant response rating, B. signalgrass” value (surinam grass; [2]) was 0, the “Plant response rating, B. signalgrass” value (surinam grass; [3]) was 0 and the “B. signalgrass plant response rating” value (surinam grass; Preemergence, Rate 250 g/ha, scale of 0 to 10 where 0 is no effect and 10 is complete control) was 1. The “B. signalgrass plant response rating” value (surinam grass; Preemergence, Rate 500 g/ha, scale of 0 to 10 where 0 is no effect and 10 is complete control) was 5, the “B. signalgrass plant response rating” value (surinam grass; [12]) was 0 and the “Plant response rating, Corn” value (corn; [11]) was 0. The “Plant response rating, Corn” value (corn; [6]) was 0, the “Corn plant response rating” value (corn; [1]) was 0 and the “Plant response rating, Corn” value (corn; [2]) was 0. The “Plant response rating, Corn” value (corn; [3]) was 0, the “Corn plant response rating” value (corn; [4]) was 0 and the “Corn plant response rating” value (corn; [5]) was 0. For the same compound, the “Corn plant response rating” value (corn; [12]) was 0, the “Plant response rating, S. Flatsedge (0 to 10 scale, 0 is no effect, 10 is complete control)” value (smallflower flatsedge; [7]) was 0 and the “S. Flatsedge plant response rating (0 to 10 scale, 0 is no effect, 10 is complete control)” value (smallflower flatsedge; [8]) was 0. For the same compound, the “S. Flatsedge plant response rating” value (smallflower flatsedge; [9]) was 0, the “S. Flatsedge plant response rating” value (smallflower flatsedge; [10]) was 0 and the “Plant response rating, Giant foxtail” value (giant foxtail; [6]) was 6. For the same compound, the “Giant foxtail plant response rating” value (giant foxtail; [1]) was 9, the “Plant response rating, Giant foxtail” value (giant foxtail; [2]) was 2 and the “Plant response rating, Giant foxtail” value (giant foxtail; [3]) was 9. For the same compound, the “Giant foxtail plant response rating” value (giant foxtail; [4]) was 10, the “Giant foxtail plant response rating” value (giant foxtail; [5]) was 10 and the “Giant foxtail plant response rating” value (giant foxtail; [12]) was 3. For the same compound, the “Plant response rating, Velvetleaf” value (velvetleaf; [6]) was 0, the “Velvetleaf plant response rating” value (velvetleaf; [1]) was 0 and the “Plant response rating, Velvetleaf” value (velvetleaf; [2]) was 0. For the same compound, the “Plant response rating, Velvetleaf” value (velvetleaf; [3]) was 0, the “Velvetleaf plant response rating” value (velvetleaf; [4]) was 0 and the “Velvetleaf plant response rating” value (velvetleaf; [5]) was 0. For the same compound, the “Plant response rating, Soybean” value (soybean; [6]) was 2, the “Soybean plant response rating” value (soybean; [1]) was 3 and the “Plant response rating, Soybean” value (soybean; [2]) was 0. For the same compound, the “Plant response rating, Soybean” value (soybean; [3]) was 0, the “Soybean plant response rating” value (soybean; [4]) was 0 and the “Soybean plant response rating” value (soybean; [5]) was 0. For the same compound, the “Plant response rating, Cocklebur” value (cocklebur; [11]) was 0, the “Plant response rating, Cocklebur” value (cocklebur; [6]) was 0 and the “Cocklebur plant response rating” value (cocklebur; [1]) was 0. The “Plant response rating, Cocklebur” value (cocklebur; [2]) was 0, the “Plant response rating, Cocklebur” value (cocklebur; [3]) was 0 and the “Cocklebur plant response rating” value (cocklebur; [4]) was 0. For the same compound, the “Cocklebur plant response rating” value (cocklebur; [5]) was 0 and the “Cocklebur plant response rating” value (cocklebur; [12]) was 0.
